ChEMBL document CHEMBL1201862, “PubChem BioAssay data set” (2004)
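Tested at 5 concentrations; 48 h exposure; 96-well plates; endpoints linearly interpolated, else capped at highest concentration. GI50 = concentration required for 50% inhibition of growth.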 The source made the active and inactive calls. Cut-off read from the data, not from the text of the source: active = GI50 up to about 1.1 µM and inactive = higher.

Legend:
Test in all cases: DTP human tumour cell line panel, 48 h
M14 = test system: M14
KM12 = test system: KM12
SW-620 = test system: SW-620
NCI-H226 = test system: NCI-H226
TK-10 = test system: TK-10
OVCAR-5 = test system: OVCAR-5
SK-MEL-2 = test system: SK-MEL-2
SF-268 = test system: SF-268
DMS-273 = test system: DMS-273
RPMI-8226 = test system: RPMI-8226
IGROV-1 = test system: IGROV-1
UACC-62 = test system: UACC-62
SNB-19 = test system: SNB-19
NCI-H460 = test system: NCI-H460
HOP-18 = test system: HOP-18
SK-OV-3 = test system: SK-OV-3
CAKI-1 = test system: CAKI-1
RXF 393 = test system: RXF 393
SN12C = test system: SN12C
786-0 = test system: 786-0
Malme-3M = test system: Malme-3M
NCI-H522 = test system: NCI-H522
SNB-78 = test system: SNB-78
NCI-H23 = test system: NCI-H23
HCT-116 = test system: HCT-116
OVCAR-8 = test system: OVCAR-8
ACHN = test system: ACHN
K562 = test system: K562
A498 = test system: A498
UACC-257 = test system: UACC-257
LXFL 529 = test system: LXFL 529
RXF 631 = test system: RXF 631
M19-MEL = test system: M19-MEL
CCRF-CEM = test system: CCRF-CEM
OVCAR-3 = test system: OVCAR-3
SF-295 = test system: SF-295
SNB-75 = test system: SNB-75
MOLT-4 = test system: MOLT-4
SK-MEL-28 = test system: SK-MEL-28
HCT-15 = test system: HCT-15
HT-29 = test system: HT-29
HCC 2998 = test system: HCC 2998
UO-31 = test system: UO-31
EKVX = test system: EKVX
DLD-1 = test system: DLD-1
HL-60 = test system: HL-60
HOP-62 = test system: HOP-62
A549 = test system: A549
DMS-114 = test system: DMS-114
LOX IMVI = test system: LOX IMVI
XF498 = test system: XF498
SK-MEL-5 = test system: SK-MEL-5
U-251 = test system: U-251
OVCAR-4 = test system: OVCAR-4
SF-539 = test system: SF-539
KM-20L2 = test system: KM-20L2
COLO 205 = test system: COLO 205
HOP-92 = test system: HOP-92
SR = test system: SR

Measured: GI50

COC(=O)c1nc(-c2ccc(Cl)c(Cl)c2)nc2ccccc12
inactive: M14 > 24.1 µM | KM12 > 85.7 µM | SW-620 > 21 µM | NCI-H226 13.7 µM | TK-10 34.6 µM | OVCAR-5 > 100 µM | SK-MEL-2 71.8 µM | SF-268 6.81 µM | DMS-273 26.2 µM | RPMI-8226 > 28.9 µM | IGROV-1 48.9 µM | UACC-62 > 27.7 µM | SNB-19 5.89 µM | NCI-H460 > 34 µM | HOP-18 2.01 µM | SK-OV-3 9.91 µM | CAKI-1 44.3 µM | RXF 393 13.6 µM | SN12C > 100 µM | 786-0 21.6 µM | Malme-3M > 100 µM | NCI-H522 > 100 µM | SNB-78 34.4 µM | NCI-H23 57.9 µM | HCT-116 13.1 µM | OVCAR-8 14.5 µM | ACHN 50.5 µM | K562 > 100 µM | A498 27.4 µM | UACC-257 > 29.6 µM | LXFL 529 > 27.1 µM | RXF 631 > 67.6 µM | M19-MEL > 100 µM | CCRF-CEM > 100 µM | OVCAR-3 14.5 µM | SF-295 12 µM | SNB-75 5.04 µM | MOLT-4 > 100 µM | SK-MEL-28 > 59.3 µM | HT-29 > 100 µM | HCC 2998 > 100 µM | UO-31 43.4 µM | EKVX > 100 µM | DLD-1 > 25.2 µM | HL-60 > 100 µM | HOP-62 14.3 µM | A549 34.9 µM | DMS-114 19.8 µM | LOX IMVI > 100 µM | XF498 6.81 µM | SK-MEL-5 > 35.8 µM | U-251 21.2 µM | OVCAR-4 7.83 µM | SF-539 24.2 µM | KM-20L2 > 100 µM
> 100 µM: HCT-15

CC(=O)NC1=C(N)C(=O)c2ccccc2C1=O
inactive: M14 43.6 µM | KM12 > 100 µM | SW-620 14.9 µM | TK-10 > 100 µM | OVCAR-5 > 100 µM | SK-MEL-2 90.6 µM | SF-268 37.8 µM | DMS-273 > 100 µM | RPMI-8226 60 µM | IGROV-1 > 100 µM | UACC-62 49.8 µM | SNB-19 > 100 µM | NCI-H460 20 µM | HOP-18 > 100 µM | SK-OV-3 > 100 µM | CAKI-1 > 100 µM | RXF 393 46.9 µM | SN12C 54.7 µM | 786-0 37.7 µM | COLO 205 30.5 µM | Malme-3M 21.3 µM | NCI-H522 79.4 µM | SNB-78 > 100 µM | NCI-H23 59.2 µM | HCT-116 17.7 µM | OVCAR-8 > 100 µM | ACHN > 100 µM | K562 57.5 µM | A498 > 100 µM | UACC-257 > 100 µM | LXFL 529 45 µM | RXF 631 > 100 µM | M19-MEL 19.4 µM | CCRF-CEM 47.1 µM | OVCAR-3 20.2 µM | SF-295 > 100 µM | SNB-75 > 100 µM | MOLT-4 > 100 µM | HT-29 65.8 µM | HCC 2998 > 100 µM | UO-31 > 100 µM | EKVX > 100 µM | DLD-1 31.4 µM | HL-60 27.1 µM | HOP-62 > 100 µM | A549 44.4 µM | DMS-114 14.8 µM | LOX IMVI 15.3 µM | XF498 > 100 µM | SK-MEL-5 30.6 µM | U-251 56.5 µM | SF-539 > 100 µM | KM-20L2 87.5 µM | HOP-92 > 100 µM
47.6 µM: HCT-15

C=CCNC(=S)NNC(=O)c1c(C)nc2sccn12
inactive: KM12 > 100 µM | SW-620 > 100 µM | NCI-H226 > 100 µM | TK-10 > 100 µM | OVCAR-5 > 100 µM | SK-MEL-2 > 100 µM | SF-268 > 100 µM | DMS-273 > 100 µM | IGROV-1 > 100 µM | UACC-62 > 100 µM | SNB-19 > 100 µM | NCI-H460 > 100 µM | HOP-18 > 100 µM | SK-OV-3 > 100 µM | CAKI-1 > 100 µM | RXF 393 > 100 µM | SN12C > 100 µM | 786-0 > 100 µM | COLO 205 > 100 µM | Malme-3M > 100 µM | NCI-H522 > 100 µM | NCI-H23 > 100 µM | HCT-116 > 100 µM | OVCAR-8 > 100 µM | ACHN > 100 µM | K562 > 100 µM | UACC-257 > 100 µM | LXFL 529 > 100 µM | RXF 631 > 100 µM | M19-MEL > 100 µM | CCRF-CEM > 100 µM | OVCAR-3 > 100 µM | SF-295 > 100 µM | MOLT-4 > 100 µM | SK-MEL-28 > 100 µM | HT-29 > 100 µM | HCC 2998 > 100 µM | EKVX > 100 µM | DLD-1 > 100 µM | HL-60 > 100 µM | HOP-62 > 100 µM | A549 > 100 µM | DMS-114 > 100 µM | LOX IMVI > 100 µM | XF498 > 100 µM | SR > 100 µM | SK-MEL-5 > 100 µM | U-251 > 100 µM | SF-539 > 100 µM | KM-20L2 > 100 µM | HOP-92 70 µM
> 100 µM: HCT-15

CCOc1ccc(/C=C2/C(=O)N=C(N)N=C2N)cc1OCC
> 100 µM: HCT-15
inactive: M14 > 100 µM | KM12 > 100 µM | SW-620 > 100 µM | NCI-H226 > 100 µM | TK-10 > 100 µM | OVCAR-5 > 100 µM | SK-MEL-2 > 100 µM | DMS-273 > 100 µM | RPMI-8226 > 100 µM | IGROV-1 > 100 µM | UACC-62 > 100 µM | SNB-19 > 100 µM | NCI-H460 > 100 µM | HOP-18 > 100 µM | SK-OV-3 > 100 µM | CAKI-1 > 100 µM | RXF 393 > 100 µM | SN12C > 100 µM | 786-0 > 100 µM | COLO 205 > 100 µM | Malme-3M > 100 µM | NCI-H522 > 100 µM | SNB-78 > 100 µM | NCI-H23 > 100 µM | HCT-116 > 100 µM | OVCAR-8 > 100 µM | ACHN > 100 µM | K562 > 100 µM | UACC-257 > 100 µM | LXFL 529 > 100 µM | RXF 631 > 100 µM | M19-MEL > 100 µM | CCRF-CEM > 100 µM | OVCAR-3 > 100 µM | SF-295 > 100 µM | SNB-75 > 100 µM | MOLT-4 > 100 µM | SK-MEL-28 > 100 µM | HT-29 > 100 µM | HCC 2998 > 100 µM | UO-31 > 100 µM | EKVX > 100 µM | HL-60 > 100 µM | A549 > 100 µM | DMS-114 > 100 µM | LOX IMVI > 100 µM | XF498 > 100 µM | SR > 100 µM | SK-MEL-5 > 100 µM | U-251 > 100 µM | OVCAR-4 > 100 µM | KM-20L2 > 100 µM | HOP-92 > 100 µM

N#CCCn1[nH]c(=O)c(Cl)c(Cl)c1=O
inactive: KM12 14.5 µM | SW-620 17.8 µM | NCI-H226 23 µM | TK-10 35.8 µM | OVCAR-5 18.8 µM | SK-MEL-2 14.7 µM | SF-268 16.3 µM | RPMI-8226 11.5 µM | IGROV-1 17.1 µM | SNB-19 15.4 µM | NCI-H460 13.3 µM | HOP-18 16.9 µM | RXF 393 17.1 µM | SN12C 17.4 µM | 786-0 18.7 µM | COLO 205 22.2 µM | Malme-3M 17.3 µM | NCI-H522 20.2 µM | SNB-78 19.6 µM | NCI-H23 15.2 µM | HCT-116 15.1 µM | OVCAR-8 15.7 µM | ACHN 17 µM | K562 6.12 µM | A498 20.2 µM | UACC-257 18.9 µM | LXFL 529 16.9 µM | RXF 631 19.6 µM | M19-MEL 12 µM | OVCAR-3 13.6 µM | SF-295 18.1 µM | SNB-75 13.2 µM | MOLT-4 15.9 µM | SK-MEL-28 15.8 µM | HT-29 11.8 µM | HCC 2998 13.1 µM | UO-31 18.9 µM | EKVX 3.87 µM | DLD-1 10.3 µM | HL-60 11.3 µM | HOP-62 > 10 µM | A549 22.7 µM | DMS-114 14.9 µM | LOX IMVI 15 µM | XF498 16.1 µM | SR 14.7 µM | U-251 16.6 µM | OVCAR-4 18 µM | SF-539 23.3 µM | KM-20L2 15.8 µM | HOP-92 6.21 µM
10.4 µM: HCT-15
